The values that follow come from US8871787B2, “Stable crystalline salt of (R)-3-fluorophenyl-3,4,5-trifluorobenzylcarbamic acid 1-azabicyclo [2.2.2]oct-3-yl ester” (Laboratorios Salvat, S.A., priority 2007, dated 2014).

A short description of series [1]: Salt screening of compound I with several acids (aspect of the salt). The conditions noted are these: free base and acid in hot ethanol, cooled, solvent evaporated. The format is physicochemical. As for the experimental part:
To select the most suitable salt of compound I and minimize the undesirable hygroscopic properties of the hydrochloride, several acids were tested. The free base of compound I was dissolved in hot ethanol, and then acid solution in hot ethanol was added. The mixture was then stirred and heated for 30 min. After cooling to room temperature, the solvent was removed by evaporation. […]

Series [2] in a line: Equilibrium solubility of the D-tartrate salt in several solvents at 25° C. The format is physicochemical. The conditions noted are these: for solubility: thermodynamic from solid, 25° C., measured as the free base.
Series [3] deals with patients suffering from Overactive Bladder syndrome. In words: Phase II clinical trial: pharmacodynamics in overactive bladder patients (urodynamic assessments, tolerability). The conditions noted are these: 4 weeks. How it is done:
A pharmacodynamic study of tarafenacin tartrate in patients suffering from Overactive Bladder syndrome was performed to obtain first efficacy and tolerability data in this population.
The study was randomised, double-blind, placebo and active-controlled. Patients received tarafenacin tartrate at the dose of 0.1 or 0.2 mg, tolterodine 4 mg or placebo o.d. during 4 weeks, just after a 2 week single-blind wash-out period in which all patients received placebo. Urodynamic assessments were performed at baseline and after 4 weeks administration.
It was planned to screen approximately 100 patients and randomize 77 patients, to obtain outcome data on 63 patients. Patients who entered the study were randomized into the four treatment groups during the double blind treatment period.
After a Screening visit and a 14 day washout single blind period (placebo run in), patients were randomized to one of the four treatment arms by a 2:2:2:1 randomization schedule. In a single blind period, only the patients were blinded. During the treatment period, each patient received tarafenacin tartrate 0.1 mg/tarafenacin tartrate 0.2 mg/tolterodine (ER) 4 mg/placebo. Identical capsules were used to maintain the study blind.
The end of study procedures were performed at the Day 28 visit (End of Treatment [EOT]). A study follow up was conducted at Day 35 either telephonically or the patient was called to the clinic (End of Study [EOS]).
The primary endpoint was the pharmacodynamic endpoints and they were assessed as the mean change from baseline to Day 28 in urodynamic, salivary flow, and accommodation near point pharmacodynamic assessments.

The mark [4] stands for this setting: 0.1 mg o.d., change from baseline to Day 28.

As a reminder, the solubility is the dissolved amount per volume that the medium holds. On to `O=C(O)C(O)C(O)C(=O)O.O=C(O[C@H]1CN2CCC1CC2)N(Cc1cc(F)c(F)c(F)c1)c1cccc(F)c1` [D-tartrate salt, D-tartrate salt of (R)-3-fluorophenyl-3,4,5-trifluorobenzylcarbamic acid 1-azabicyclo[2.2.2]oct-3-yl ester], for which the figures for the “Aspect of the salt” value in series [1] (listed as D-Tartaric) and in series [1] (listed as salt obtained with D-tartaric acid) were “White solid crystal precipitated in EtOH” and “non-hygroscopic solid crystal”, respectively. Further, the solubility came out at 90 µg/mL in series [2] (aqueous buffer, 0.1N sodium hydroxide); 2200 µg/mL in series [2] (organic solvent or mixture, Dichloromethane); 10000 µg/mL in series [2] (organic solvent or mixture, Ethanol); 300 µg/mL in series [2] (organic solvent or mixture, Hexane); 1500 µg/mL in series [2] (organic solvent or mixture, Isopropyl alcohol); 258000 µg/mL in series [2] (organic solvent or mixture, Methanol). Also, the solubility in series [2] (organic solvent or mixture, n-Octanol) was 500 µg/mL; in series [2] (simulated gastric fluid, 0.1 Hydrochloric acid) it was 367000 µg/mL; in series [2] (Water), 251000 µg/mL. For the same molecule, the “solubility in water (in words)” value in series [2] (crystalline form, water) is recorded as “highly soluble in water”. In addition, the “incidence of treatment emergent adverse events” value was found to be 25% in series [3] (0.1 mg o.d.) and 33% in series [3] (0.2 mg o.d.). For the same molecule, the “increase in infused volume” value in series [3] (setting [4]) is recorded as 73 mL. Moreover, the “increase in volume at first desire to void” value in series [3] (setting [4]) is listed as 60 mL. In addition, the “increase in volume at strong desire to void” value in series [3] (setting [4]) amounted to 71 mL. The “dose-response relationship (in words)” value in series [3] (0.1 mg versus 0.2 mg o.d.) is “no dose-response relationship”. Moreover, the “tolerability (in words)” value in series [3] (OAB patients) is recorded as “well tolerated”. Further, the “pharmacological activity (in words)” value is reported as “good pharmacological activity” in series [3] (OAB patients, listed as Tarafenacin tartrate) and “higher pharmacological activity” in series [3] (OAB patients, listed as tarafenacin tartrate).
